This test deals with Voltage-gated inwardly rectifying potassium channel KCNH2 (Homo sapiens, UniProt Q12809). The test is described as follows: Inhibition of K+ channel activity in CHO cells expressing HERG Kv11.1.
Chain of Voltage-gated inwardly rectifying potassium channel KCNH2 (Q12809 whole entry): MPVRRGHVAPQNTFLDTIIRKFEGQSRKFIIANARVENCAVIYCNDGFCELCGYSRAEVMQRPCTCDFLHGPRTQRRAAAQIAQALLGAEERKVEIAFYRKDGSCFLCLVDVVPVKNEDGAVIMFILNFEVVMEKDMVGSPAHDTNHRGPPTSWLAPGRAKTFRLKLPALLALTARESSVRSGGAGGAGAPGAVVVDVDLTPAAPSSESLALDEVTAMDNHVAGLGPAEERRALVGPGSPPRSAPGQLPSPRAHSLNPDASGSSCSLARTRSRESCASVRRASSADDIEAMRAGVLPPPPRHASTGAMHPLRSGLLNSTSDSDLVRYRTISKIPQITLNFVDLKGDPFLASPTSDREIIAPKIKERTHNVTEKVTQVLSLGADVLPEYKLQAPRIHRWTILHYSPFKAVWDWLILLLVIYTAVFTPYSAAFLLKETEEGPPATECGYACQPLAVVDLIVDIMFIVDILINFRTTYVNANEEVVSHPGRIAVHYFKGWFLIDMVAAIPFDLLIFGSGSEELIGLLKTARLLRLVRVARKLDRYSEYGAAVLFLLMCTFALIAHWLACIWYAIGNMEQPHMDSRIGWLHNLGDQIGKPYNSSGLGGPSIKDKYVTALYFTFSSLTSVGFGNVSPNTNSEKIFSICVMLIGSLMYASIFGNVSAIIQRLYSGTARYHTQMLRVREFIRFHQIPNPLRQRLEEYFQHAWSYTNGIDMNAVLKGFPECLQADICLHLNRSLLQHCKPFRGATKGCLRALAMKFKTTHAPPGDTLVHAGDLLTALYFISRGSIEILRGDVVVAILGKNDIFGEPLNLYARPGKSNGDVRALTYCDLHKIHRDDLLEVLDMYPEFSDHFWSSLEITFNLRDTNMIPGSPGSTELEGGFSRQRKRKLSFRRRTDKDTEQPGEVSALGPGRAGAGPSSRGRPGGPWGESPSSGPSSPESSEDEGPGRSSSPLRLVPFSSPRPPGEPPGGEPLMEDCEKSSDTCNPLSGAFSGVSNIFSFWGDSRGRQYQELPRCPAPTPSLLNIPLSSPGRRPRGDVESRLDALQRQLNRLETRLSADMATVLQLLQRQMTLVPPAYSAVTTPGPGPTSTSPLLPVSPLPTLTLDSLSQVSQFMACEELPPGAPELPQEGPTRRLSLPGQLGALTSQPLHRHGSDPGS
For orientation: IC50 means the concentration that gives 50% inhibition. Read a low IC50 as greater potency in that assay. In the case of `O=C1NCCN1CCN1CC=C(c2cn(-c3ccc(F)cc3)c3ccc(Cl)cc23)CC1`, the IC50 amounted to 0.01 µM.

The compound `O=C1NCCN1CCN1CCC(c2cn(-c3ccc(F)cc3)c3ccccc23)CC1` showed an IC50 of 0.007 µM.

Compound `Fc1ccc(-n2cc(C3CCNCC3)c3cc(Cl)ccc32)cc1` displayed an IC50 of 0.204 µM.

For the compound `Fc1ccc(-n2cc(C3CCN(CCN4CCN=C4S)CC3)c3ccccc32)cc1`, the IC50 worked out at 0.0062 µM.

`CC(C)(C)c1ccc2c(ccn2-c2ccc(F)cc2)c1` had an IC50 greater than 10 µM.

Regarding `CCc1cn(-c2ccc(F)cc2)c2ccc(Cl)cc12`, 3.5 µM corresponded to half-maximal inhibition (IC50).

`CC(=O)c1cn(-c2ccc(F)cc2)c2ccc(Cl)cc12`: the IC50 is greater than 10 µM.

`CCCc1cn(-c2ccc(F)cc2)c2ccc(Cl)cc12`: the midpoint of inhibition, the IC50, lay at 26 µM.

In the case of `CC(O)c1cn(-c2ccc(F)cc2)c2ccc(Cl)cc12` (stereo not given), half-maximal inhibition (IC50) was put at 4.55 µM.

With `CC(C)c1cn(-c2ccc(F)cc2)c2ccc(Cl)cc12`, the IC50 is greater than 10 µM.

The compound `CCC(=O)c1cn(-c2ccc(F)cc2)c2ccc(Cl)cc12` displayed an IC50 of 1.95 µM.

`O=C1NCCN1CCN1CCC(c2cn(C3CCCCC3)c3ccc(Cl)cc23)CC1` returned an IC50 of 0.137 µM.

In turn, `CCC(O)c1cn(-c2ccc(F)cc2)c2ccc(Cl)cc12` (stereo not given) showed an IC50 of 2.2 µM.

In turn, `CCC(O)(CC)c1cn(-c2ccc(F)cc2)c2ccc(Cl)cc12` gave an IC50 of 15.7 µM.

`O=C1NCCN1CCN1CCC(C2CN(c3ccc(F)cc3)c3ccccc32)CC1` (stereo not given) yielded an IC50 of 0.0235 µM.

These data come from ChEMBL document CHEMBL1136402, “Characterization of HERG potassium channel inhibition using CoMSiA 3D QSAR and homology modeling approaches” (Bioorg Med Chem Lett, 2003).
